These results are taken from patent US4900727A, “4H-1-benzopyran-4-one compounds which have anti-inflamatory or immunodulating action” (Hoechst Aktiengesellschaft, priority 1986, dated 1990).

Structures are written as SMILES. Structures can show the parent of a compound that is named as a salt. Where two headings read alike, the source gives them in different places.

Experiment [1] has as its system carrageenin-induced paw edema in rats. As to the kind of experiment: Systemic anti-inflammatory action on carrageenin-induced paw edema in rats. It is filed as in vivo, male Charles Foster rats. Particulars: decrease in paw volume, 3 and 6 hours after carrageenin, from dose/response curve. The procedure: Male Charles Foster rats (120-150 g) were fasted for 18 hours, with water ad libitum. The test compound dissolved in distilled water was administered orally. The control group received distilled water. 0/05 ml of 0.5% carrageenin suspension was injected subcutaneously into the plantar region of the left hind paw. Using a Maclab differential volume meter, the paw volume was determined before the carrageenin injection and 3 and 6 hours after the injection. The percentage decrease in paw volume was calculated by the following equation: [formula] The ED50 value was calculated from the dose/response curve. Six animals were used for each group. The results with representative compounds according to the invention and their salts are listed in Table 4, the substituents relating to the following formula Ia: [drawing 11]

Experiment [2] has as its system reverse passive Arthus reaction (RPA) in rats. The experiment in a line: Reverse passive Arthus reaction (RPA) in rats. Particulars: one hour before RPA, edema vs untreated control; for % inhibition: hydrochloride; for inhibition in vivo at 2.5 mg/kg / inhibition in vivo at 5 mg/kg / inhibition in vivo at 10 mg/kg / inhibition in vivo at 20 mg/kg: Rattus norvegicus, po, 4 h. The format is in vivo, Charles Foster rats of both sexes. The protocol: Charles Foster rats of both sexes, weighing 150-180 g, were sorted into groups of six animals each. 24 hours before the initiation of the RPA, the rats were shaved from the mid-dorsal region and fasted overnight. The test compounds were administered orally one hour before inducing the Arthus reaction. The RPA reaction was induced by intradermal injection of 0.1 ml of appropriately diluted rabbit anti-BSA serum. Immediately after the intradermal exposure, each rat received 0.5 ml of 0.4% bovine serum albumin intraveneously. Four hours after the intradermal challenge, each group of animals was killed by cervical dislocation. The full thickness of the skin was removed from the back of each animal, and a 12 mm diameter disk was punched out with a metal punch from the site of the antiserum injection. The wet weight of each skin site was determined as soon as possible. The edema caused by the RPA was measured as the difference (expressed in mg) between the wet weight of the site injected with antibody and that injected with normal rabbit serum. The results are expressed as the percentage inhibition or potentiation of the edema by the compound as compared with the edema induced in the untreated control animals.

Where [3] appears, read: Rattus norvegicus, po, read-out: ED50.

In experiment [1] (p.o., hydrochloride), `Cc1cc(=O)c2c(O)cc(O)c([C@H]3CCN(C)C[C@H]3O)c2o1` (single isomer, unassigned) [(-) CH3 H CH3 HCl, (-)-cis-5,7-Dihydroxy-2-methyl-8-[4'-(3'-hydroxy-1'-methyl)-piperidinyl]-4H-1-benzopyran-4-one hydrochloride] showed a median effective dose (ED50) of 9.0 mg/kg. The “% inhibition” value was found to be 40.31% in experiment [2] (dose 1.25 mg/kg p.o., 1.25 mg/kg); 39.11% in experiment [2] (dose 2.5 mg/kg p.o., 2.5 mg/kg); 40.13% in experiment [2] (dose 5.0 mg/kg p.o., 5 mg/kg); 45.17% in experiment [2] (dose 10.0 mg/kg p.o., 10 mg/kg); 64.73% in experiment [2] (dose 20.0 mg/kg p.o., 20 mg/kg).
Turning to `CN1CC[C@H](c2c(O)cc(O)c3c(=O)cc(-c4ccccc4)oc23)[C@H](O)C1` (single isomer, unassigned) [(-) Phenyl H CH3 HCl.1/2H2 O, cis-(-)-5,7-dihydroxy-2-phenyl-8-[4'-(3'-hydroxy-1'-methyl)-piperidinyl]-4H-1-benzopyran-4-one], the ED50 in experiment [1] (setting [3]) worked out at 1.3 mg/kg. Further, the inhibition in vivo at 2.5 mg/kg in experiment [2] (dose 2.5 mg/kg p.o.) is 26.2%. In experiment [2] (dose 5.0 mg/kg p.o.), the inhibition in vivo at 5 mg/kg came to 64.5%. In addition, in experiment [2] (dose 10.0 mg/kg p.o.), the inhibition in vivo at 10 mg/kg was 92.2%.
For the compound `Cc1cc(=O)c2c(O)cc(O)c(C3CCN(CC4CC4)CC3O)c2o1` (single isomer, unassigned; (-)) [(-) CH3 H [drawing 12] HCl.H2 O, cis-(-)-5,7-Dihydroxy-2-methyl-8-[4'-(1'-cyclopropylmethyl-3'-hydroxy)-piperidinyl]-4H-1-benzopyran-4-one hydrochloride], the ED50 in experiment [1] (setting [3]) was 10 mg/kg. Besides, in experiment [2] (dose 2.5 mg/kg p.o.), the inhibition in vivo at 2.5 mg/kg was 23%. The inhibition in vivo at 5 mg/kg in experiment [2] (dose 5.0 mg/kg p.o.) is 49.7%. In addition, the inhibition in vivo at 20 mg/kg in experiment [2] (dose 20.0 mg/kg p.o.) came to 74%.
Turning to `CCCc1cc(=O)c2c(O)cc(O)c(C3CCN(C)CC3O)c2o1` (single isomer, unassigned; (-)) [(-) n-C3 H7 H CH3 HCl.H2 O, cis-(-)-5,7-dihydroxy-2-n-propyl-8-[4'-(3'-hydroxy-1'-methyl)-piperidinyl]-4H-1-benzopyran-4-one], the ED50 in experiment [1] (setting [3]) turned out to be 5.8 mg/kg. Besides, the inhibition in vivo at 2.5 mg/kg in experiment [2] (dose 2.5 mg/kg p.o.) was 42.7%. Further, in experiment [2] (dose 5.0 mg/kg p.o.), the inhibition in vivo at 5 mg/kg is 41.3%. For the same compound, in experiment [2] (dose 10.0 mg/kg p.o.), the inhibition in vivo at 10 mg/kg came out at 63.7%. Moreover, the inhibition in vivo at 20 mg/kg in experiment [2] (dose 20.0 mg/kg p.o.) came to 72.1%.
